Tests used:
A2780 tumors = test: Human ovarian tumor xenografts (A2780) in athymic nude mice, tumor volume % T/C; format: in vivo
Method: Female athymic nude mice (Harlan Laboratories Models, S.L. (Barcelona, Spain) were utilized for all experiments. Animals were housed in individually ventilated cages, up to ten per cage in a 12-hour light-dark cycle at 21-23° C. and 40-60% humidity. The mice were allowed free access to irradiated standard rodent diet and sterilized water. Animals were acclimated for at least 5 days prior to tumor implantation with a tumor cell suspension.
The formula to calculate volume for a prolate ellipsoid was used to estimate tumor volume (mm^3) from 2-dimensional tumor measurements: Tumor volume (mm^3)=[L×W^2]÷2, where L is the length and it is the longest diameter in mm, and W is the width and it is the shortest diameter in mm of a tumor. Assuming unit density, volume was converted to weight (i.e., 1 mm^3=1 mg). Tumor volume and animal body weights were measured 2-3 times per week starting form the first day of treatment (Day 0).
PM01183 was provided in the form of vials of lyophilized PM01183 cake which was reconstituted with water for infusion to a concentration of 0.2 mg/mL. The PM01183 stock solution was further diluted in 5% glucose solution for injection to the dosing formulation concentrations. […] Vinorelbine was provided as a solution prepared by diluting the product with 0.9% saline solution.
Dose level groups were administered either as single agents or in combination.
Comparison of the median tumor volume in the treatment groups (T) to the median tumor volume in the control group (T/C×100%) was used for evaluation of the antitumor efficacy.
Day 9 for PM01183 and vinorelbine study) using the median-effect principle (Chou T. C. Pharmacol. Rev.

[1] = system: JURKAT human leukemia cell line; test: cells; details: Homo sapiens, Jurkat, 72 h
Method: (§1) Additional serial dilutions were prepared in serum-free culture medium to achieve a final 4× concentration. Aliquots of 50 μL of each diluted compound were added per well.
(§2) JURKAT and MOLT-4 were the human leukemia cell lines selected for this assay, which were obtained from the American Type Culture Collection (ATCC).
(§3) Briefly, cells were seeded in 96 well microtiter plates at a density of 50000 cells per well in 150 μL of culture medium and incubated for 4-6 hours in drug-free medium before treatment with vehicle alone or test compounds for 72 hours.
(§4) After incubation, the cytotoxic effect was evaluated using a MTT reduction assay. 50 μL of MTT solution (1 mg/mL) were added to the wells and incubated for 15-17 hours at 37° C. until formazan crystals were formed. After gently removing the culture medium, DMSO was added to dissolve the insoluble purple formazan product into a colored solution. […] Results were expressed as percentage of control cell growth. The EC50 values (half-maximal effective concentration) used for the combination studies were calculated using Prism v5.02 software (GraphPad). EC50 was expressed as molar concentration and represented the mean of at least three independent assays.
(§5) b. In a second set of experiments, concentration-response curves for the agents tested, both alone and in two-drug combination, were performed, using the same methodology described in the previous paragraph.
(§6) Using these starting concentrations, constant serial dilutions were performed to generate the concentration-response curves for each set of drugs, alone and in combination.
(§7) Based on this equation, the term “combination index” (CI) is used as a quantitative measure of the degree of drug interactions. […] CI values were calculated by solving the equation for different values of fa (i.e., for different degrees of cell groth inhibition).
(§8) Data were analyzed using CalcuSyn software (Biosoft, Cambridge, UK). For statistical analysis and graphs Prism software (GraphPad, San Diego, USA) was used. All the results represent the mean of at least three independent experiments.

[2] = system: MOLT-4 human leukemia cell line; test: cells; details: Homo sapiens, MOLT-4, 72 h
Method: as §1, §2, §3, §4, §5, §6, §7, §8

[3] = system: RAMOS human lymphoma cell line; test: cells; details: Homo sapiens, Ramos, 72 h
[4] = system: U-937 human lymphoma cell line; test: cells; details: Homo sapiens, U-937, 72 h
[5] = PM01183 0.045 mg/kg iv days 0,7, doxorubicin study
[6] = PM01183 0.045 mg/kg iv days 0,7, paclitaxel study
[7] = PM01183 0.045 mg/kg iv days 0,7, vinorelbine study
[8] = PM01183 0.09 mg/kg iv days 0,7, doxorubicin study
[9] = PM01183 0.09 mg/kg iv days 0,7, paclitaxel study
[10] = PM01183 0.09 mg/kg iv days 0,7, vinorelbine study
[11] = PM01183 0.135 mg/kg iv days 0,7, doxorubicin study
[12] = PM01183 0.135 mg/kg iv days 0,7, paclitaxel study
[13] = PM01183 0.135 mg/kg iv days 0,7, vinorelbine study
[14] = PM01183 0.18 mg/kg iv days 0,7, doxorubicin study
[15] = PM01183 0.18 mg/kg iv days 0,7, paclitaxel study
[16] = PM01183 0.18 mg/kg iv days 0,7, vinorelbine study

Compound: COc1ccc2[nH]c3c(c2c1)CCN[C@]31CS[C@@H]2c3c(OC(C)=O)c(C)c4c(c3[C@H](COC1=O)N1[C@@H]2[C@H]2c3c(cc(C)c(OC)c3O)C[C@@H]([C@@H]1O)N2C)OCO4 [PM01183]
- % T/C on day 0 (A2780 tumors; [5]): 100.1%
- % T/C on day 3 (A2780 tumors; [5]): 98.2%
- % T/C on day 5 (A2780 tumors; [5]): 98.6%
- % T/C on day 7 (A2780 tumors; [5]): 97.7%
- % T/C on day 10 (A2780 tumors; [5]): 90.0%
- % T/C on day 0 (A2780 tumors; [6]): 94.0%
- % T/C on day 3 (A2780 tumors; [6]): 91.1%
- % T/C on day 5 (A2780 tumors; [6]): 99.6%
- % T/C on day 7 (A2780 tumors; [6]): 88.0%
- % T/C on day 10 (A2780 tumors; [6]): 73.1%
- % T/C on day 0 (A2780 tumors; [7]): 97.8%
- % T/C on day 2 (A2780 tumors; [7]): 107.5%
- % T/C on day 5 (A2780 tumors; [7]): 93.6%
- % T/C on day 7 (A2780 tumors; [7]): 92.5%
- % T/C on day 9 (A2780 tumors; [7]): 97.1%
- % T/C on day 0 (A2780 tumors; [8]): 100.2%
- % T/C on day 3 (A2780 tumors; [8]): 93.3%
- % T/C on day 5 (A2780 tumors; [8]): 95.2%
- % T/C on day 7 (A2780 tumors; [8]): 93.5%
- % T/C on day 10 (A2780 tumors; [8]): 87.7%
- % T/C on day 0 (A2780 tumors; [9]): 94.2%
- % T/C on day 3 (A2780 tumors; [9]): 88.5%
- % T/C on day 5 (A2780 tumors; [9]): 114.1%
- % T/C on day 7 (A2780 tumors; [9]): 103.3%
- % T/C on day 10 (A2780 tumors; [9]): 88.0%
- % T/C on day 0 (A2780 tumors; [10]): 98.0%
- % T/C on day 2 (A2780 tumors; [10]): 88.6%
- % T/C on day 5 (A2780 tumors; [10]): 61.2%
- % T/C on day 7 (A2780 tumors; [10]): 87.6%
- % T/C on day 9 (A2780 tumors; [10]): 94.5%
- % T/C on day 0 (A2780 tumors; [11]): 102.2%
- % T/C on day 3 (A2780 tumors; [11]): 82.4%
- % T/C on day 5 (A2780 tumors; [11]): 86.6%
- % T/C on day 7 (A2780 tumors; [11]): 89.2%
- % T/C on day 10 (A2780 tumors; [11]): 82.4%
- % T/C on day 0 (A2780 tumors; [12]): 101.2%
- % T/C on day 3 (A2780 tumors; [12]): 89.9%
- % T/C on day 5 (A2780 tumors; [12]): 99.8%
- % T/C on day 7 (A2780 tumors; [12]): 84.5%
- % T/C on day 10 (A2780 tumors; [12]): 61.2%
- % T/C on day 0 (A2780 tumors; [13]): 98.3%
- % T/C on day 2 (A2780 tumors; [13]): 105.3%
- % T/C on day 5 (A2780 tumors; [13]): 77.2%
- % T/C on day 7 (A2780 tumors; [13]): 79.1%
- % T/C on day 9 (A2780 tumors; [13]): 78.7%
- % T/C on day 0 (A2780 tumors; [14]): 100.9%
- % T/C on day 3 (A2780 tumors; [14]): 70.2%
- % T/C on day 5 (A2780 tumors; [14]): 68.5%
- % T/C on day 7 (A2780 tumors; [14]): 69.3%
- % T/C on day 10 (A2780 tumors; [14]): 62.1%
- % T/C on day 0 (A2780 tumors; [15]): 101.6%
- % T/C on day 3 (A2780 tumors; [15]): 68.9%
- % T/C on day 5 (A2780 tumors; [15]): 83.1%
- % T/C on day 7 (A2780 tumors; [15]): 69.1%
- % T/C on day 10 (A2780 tumors; [15]): 52.8%
- % T/C on day 0 (A2780 tumors; [16]): 98.9%
- % T/C on day 2 (A2780 tumors; [16]): 101.6%
- % T/C on day 5 (A2780 tumors; [16]): 72.2%
- % T/C on day 7 (A2780 tumors; [16]): 61.3%
- % T/C on day 9 (A2780 tumors; [16]): 62.8%
- EC50 [1]: 1.55 nM
- EC50 [2]: 0.857 nM
- EC50 [3]: 1.39 nM
- EC50 [4]: 1.03 nM

Reference: patent publication US11590129B2, “Combination therapy with an antitumor alkaloid” (PHARMA MAR, S.A., priority 2010, dated 2023)
